Reference: patent publication US20050143628A1, “Methods for characterizing tissue or organ condition or status” (priority 2003, published 2005)
Values joined by “and” are separate entries in the source; they are usually repeats but may differ in a detail not shown here. Equal values may be shown once. Read-outs that look alike come from different tables or passages of the source.

Tests used:
rat liver [1] = experiment: Serum clinical chemistry: total bilirubin (Tbil) after 3-day treatment
Text: (§1) After 3-day treatment, rat liver samples were collected for RNA extraction and histo-pathology examination. Sera from the same rats were subjected to clinical chemistry monitoring.
(§2) Liver injury was identified by the individual clinical chemistry measurement if its level was outside +/− two standard deviations of the averaged level of normal animals.

rat liver [2] = experiment: Serum clinical chemistry: alanine aminotransferase (ALT) after 3-day treatment
Text: as §1, §2

rat liver [3] = experiment: Serum clinical chemistry: aspartate aminotransferase (AST) after 3-day treatment
Text: as §1, §2

rat liver [4] = experiment: Serum clinical chemistry: alkaline phosphatase (ALP) after 3-day treatment
Text: as §1, §2

rat liver [5] = experiment: Serum clinical chemistry: cholesterol (Chol) after 3-day treatment
Text: as §1, §2

rat liver [6] = conditions: for Pathological observations in liver: model false positive
Text: as §1

rat liver [7] = experiment: Hepatotoxicity score (HS) combined from five clinical chemistry measurements, threshold -0.25; conditions: 3-day treatment
rat liver [8] = conditions: in vivo, 150 mg/kg/day
[9] = rat serum, dose 320 mg/kg/day, individual rats
[10] = rat serum, dose 160 mg/kg, individual rats
[11] = rat serum, dose 1600 mg/kg, individual rats
[12] = SD rats, 10 mg/kg/day, 3-day treatment, the other two of three treated rats
[13] = rat serum, dose 1 mg/kg/day, individual rats
[14] = rat serum, dose .001 mg/kg/day, individual rats
[15] = rat serum, dose 500 mg/kg/day, individual rats
[16] = rat serum, dose 45 mg/kg/day, individual rats
[17] = rat serum, dose 450 mg/kg/day, individual rats
[18] = rat serum, dose 50 mg/kg/day, individual rats
[19] = rat serum, dose 100 mg/kg, individual rats
[20] = rat serum, dose 1000 mg/kg, individual rats

Compound: C1CCC(C(CC2CCCCN2)C2CCCCC2)CC1 (centres unmarked) [perhexilene, reference compound]
- TBil (rat liver [1]; [9]): 0.100
- ALT (rat liver [2]; [9]): 51.000 and 129.000 and 31.000
- AST (rat liver [3]; [9]): 103.000 and 116.000 and 98.000
- ALP (rat liver [4]; [9]): 248.000 and 340.000 and 245.000
- Chol. (rat liver [5]; [9]): 45.000 and 44.000 and 66.000

Compound: CN1C(=O)CN=C(c2ccccc2)c2cc(Cl)ccc21 [diazepam]
- TBil (rat liver [1]; rat, in vivo): 0.100

Compound: CCSCC[C@H](N)C(=O)O [L-ethionine]
- Pathological observations in liver (rat liver [6]; 50 mg/kg/day treated group, 3-day treatment): noticeable pathological changes

Compound: CN[C@@H]1[C@H](O)[C@H](NC)[C@H]2O[C@@]3(O)C(=O)C[C@@H](C)O[C@H]3O[C@@H]2[C@H]1O [spectinomycin]
- TBil (rat liver [1]; [10]): 0.100
- TBil (rat liver [1]; [11]): 0.100
- ALT (rat liver [2]; [10]): 52.000 and 36.000 and 46.000
- ALT (rat liver [2]; [11]): 60.000 and 44.000 and 30.000
- AST (rat liver [3]; [10]): 83.000 and 74.000 and 70.000
- AST (rat liver [3]; [11]): 98.000 and 95.000 and 86.000
- ALP (rat liver [4]; [10]): 174.000 and 181.000
- ALP (rat liver [4]; [11]): 246.000 and 189.000 and 176.000
- Chol. (rat liver [5]; [10]): 60.000 and 59.000 and 54.000
- Chol. (rat liver [5]; [11]): 36.000 and 62.000 and 26.000

Compound: C[C@]12CC[C@@H]3c4ccc(O)cc4CC[C@H]3[C@@H]1CC[C@@H]2O[C@@H]1O[C@H](C(=O)O)[C@@H](O)[C@H](O)[C@H]1O [estradiol glucuronide]
- Liver injury by ALT (rat liver [2]; [12]): showed liver injury
- Histopathology examination of liver (rat liver [6]; SD rats, 10 mg/kg/day treatment group, 3-day treatment): Cellular abnormality
- Liver damage call by hepatotoxicity score versus individual clinical chemistry measures (rat liver [7]; SD rat, high dose 10 mg/kg/day): positives detected by the hepatotoxicity score
- Liver injury by ALP (rat liver [4]; [12]): showed liver injury

Compound: CN(C)C=O [dimethlformamide]
- Pathological observations in liver (rat liver [6]; 1000 mg/kg/day treated group, 3-day treatment): noticeable pathological changes

Compound: microcystin
- TBil (rat liver [1]; rat, in vivo): 0.600 and 0.400
- ALT (rat liver [2]; rat, in vivo): 140.000 and 258.000 and 144.000
- AST (rat liver [3]; rat, in vivo): 204.000 and 384.000 and 296.000
- ALP (rat liver [4]; rat, in vivo): 518.000 and 427.000 and 514.000
- Chol. (rat liver [5]; rat, in vivo): 84.000 and 67.000 and 95.000

Compound: CCN(CC)N=O [diethylnitrosamine]
- Pathological observations in liver (rat liver [6]; 100 mg/kg/day treated group, 3-day treatment): noticeable pathological changes

Compound: CC[C@H]1/C=C/C=C/C[C@@H](C)[C@H](O)[C@@](C)(O)C(=O)[C@@H](C)[C@H](O)[C@@H](C)C(=O)[C@@H](C)[C@H](O)[C@@H](C)/C=C/C(=O)O[C@@H]2[C@H](C)[C@H](CC1)O[C@]1(CC[C@H](C)[C@H](C[C@@H](C)O)O1)[C@H]2C [oligomycin]
- TBil (rat liver [1]; [13]): 0.200
- ALT (rat liver [2]; [13]): 44.000 and 46.000 and 58.000
- AST (rat liver [3]; [13]): 72.000 (2×) and 75.000
- ALP (rat liver [4]; [13]): 361.000 and 289.000 and 397.000
- Chol. (rat liver [5]; [13]): 47.000 and 72.000 and 59.000

Compound: TNFalpha
- TBil (rat liver [1]; [14]): 0.200 (2×) and 0.100
- ALT (rat liver [2]; [14]): 53.000 and 48.000 and 55.000
- AST (rat liver [3]; [14]): 70.000 (2×) and 59.000
- ALP (rat liver [4]; [14]): 728.000 and 255.000 and 312.000
- Chol. (rat liver [5]; [14]): 50.000 and 60.000 (2×)

Compound: Cn1c(=O)c2[nH]cnc2n(C)c1=O [theophylline]
- TBil (rat liver [1]; rat, in vivo, 75 mg/kg): 0.100

Compound: CC/C(=C(\c1ccccc1)c1ccc(OCCN(C)C)cc1)c1ccccc1 [tamoxifen, reference compound]
- Histopathology examination of liver (rat liver [6]; rat, in vivo, 5 mg/kg/day): no observable liver abnormality

Compound: CN(C)C(=N)N=C(N)N [metformin]
- Histopathology examination of liver (rat liver [6]; rat, in vivo, 900 mg/kg/day): no observable liver abnormality
- Liver damage call by hepatotoxicity score versus individual clinical chemistry measures (rat liver [7]; one SD rat, 900 mg/kg/day): false negatives

Compound: CC(C)(C)c1ccc(C(O)CCCN2CCC(C(O)(c3ccccc3)c3ccccc3)CC2)cc1 (centres unmarked) [terfenadine]
- TBil (rat liver [1]; rat, in vivo, 15 mg/kg): 0.100
- TBil (rat liver [1]; rat, in vivo, 150 mg/kg): 0.100

Compound: CC1=C(/C=C/C(C)=C/C=C/C(C)=C/CO)C(C)(C)CCC1 [Retinol]
- TBil (rat liver [1]; [15]): 0.200
- ALT (rat liver [2]; [15]): 27.000 and 31.000 and 37.000
- AST (rat liver [3]; [15]): 88.000 and 157.000 and 112.000
- ALP (rat liver [4]; [15]): 259.000 and 241.000 and 348.000
- Chol. (rat liver [5]; [15]): 67.000 and 50.000 and 47.000

Compound: O=C1NC(=O)C(c2ccccc2)(c2ccccc2)N1 [phenytoin]
- TBil (rat liver [1]; [16]): 0.200
- TBil (rat liver [1]; [17]): 0.200 and 0.100 (2×)
- ALT (rat liver [2]; [16]): 26.000 and 19.000
- ALT (rat liver [2]; [17]): 49.000 and 38.000 and 24.000
- AST (rat liver [3]; [16]): 65.000 and 81.000
- AST (rat liver [3]; [17]): 130.000 and 71.000 and 65.000
- ALP (rat liver [4]; [16]): 199.000 and 214.000
- ALP (rat liver [4]; [17]): 255.000 and 233.000 and 312.000
- Chol. (rat liver [5]; [16]): 77.000 and 71.000
- Chol. (rat liver [5]; [17]): 61.000 and 73.000 and 66.000

Compound: aflatoxin B
- TBil (rat liver [1]; rat, in vivo): 0.200
- ALT (rat liver [2]; rat, in vivo): 81.000 and 48.000 and 59.000
- AST (rat liver [3]; rat, in vivo): 206.000 and 132.000 and 156.000
- ALP (rat liver [4]; rat, in vivo): 297.000 and 166.000 and 217.000
- Chol. (rat liver [5]; rat, in vivo): 64.000 and 75.000 and 63.000

Compound: C[C@H]1C(=O)O[C@@H]2CCN3CC=C(COC(=O)[C@](C)(O)[C@]1(C)O)[C@H]23 [monocrotaline, reference compound]
- TBil (rat liver [1]; [18]): 0.200 (2×) and 1.500
- ALT (rat liver [2]; [18]): 44.000 and 64.000 and 610.000
- Histopathology examination of liver (rat liver [6]; SD rat, 50 mg/kg/day, 3-day treatment, HS false negative sample): no observable liver abnormality
- AST (rat liver [3]; [18]): 123.000 and 135.000 and 270.000
- Liver damage call by hepatotoxicity score versus individual clinical chemistry measures (rat liver [7]; one SD rat, high dose 50 mg/kg/day): false negatives
- ALP (rat liver [4]; [18]): 194.000 and 211.000 and 298.000
- Chol. (rat liver [5]; [18]): 54.000 and 61.000 and 69.000

Compound: CC(=O)Oc1ccccc1C(=O)O [aspirin]
- Liver damage call by hepatotoxicity score versus individual clinical chemistry measures (rat liver [8]): positives detected by the hepatotoxicity score
- Histopathology examination of liver (rat liver [6]; rat, in vivo, 150 mg/kg/day): Cellular abnormality

Compound: penicillin
- TBil (rat liver [1]; [19]): 0.100
- TBil (rat liver [1]; [20]): 0.100
- ALT (rat liver [2]; [19]): 51.000 and 41.000 and 44.000
- ALT (rat liver [2]; [20]): 52.000 (2×) and 25.000 and 42.000
- AST (rat liver [3]; [19]): 127.000 and 144.000
- AST (rat liver [3]; [20]): 134.000 (2×) and 80.000 and 90.000
- ALP (rat liver [4]; [19]): 290.000 and 247.000
- ALP (rat liver [4]; [20]): 215.000 (2×) and 247.000 and 253.000
- Chol. (rat liver [5]; [19]): 49.000 and 37.000 and 69.000
- Chol. (rat liver [5]; [20]): 41.000 (2×) and 43.000 and 73.000
